Experiments:
recombinant human MMP-3 = recombinant human MMP-3 (Homo sapiens (Human), UniProt P08254); experiment: MMP selectivity assay MMP-3; format: biochemical
Description: (§1) The inhibitory effect of compounds on the rate of cleaving fluorogenic MMP substrate (Enzo, BML-P128) by recombinant human MMP-12 catalytic domain (Enzo, BML-SE138) was carried out by methods known in the art. Briefly, to each well of a 96-well black opaque plate, all the reagents were sequentially added by pipetting, and the final reaction contained 4 nM of recombinant human MMP-12 catalytic domain, 4 μM of fluorogenic MMP substrate, and various concentrations (0.15 nM to 10,000 nM) of tested compound dilutions in HEPES buffer (pH 7.5) containing 10 mM of CaCl2, 0.01% Brij® 35 (polyoxyethylene (23) lauryl ether), and 0.1 mg/ml of BSA.
(§2) The enzyme and compounds were pre-incubated on a shaker to mix in wells. After an hour of mixing, fluorogenic substrate was added to each well. Reaction without enzyme was used as a blank control in the plate. The plate was then fed into a plate reader to measure fluorescence intensity at Excitation/Emission wavelengths of 340 nm/440 nm every 10 mins for at least 1 hour at 37° C. The IC50 of each compound in MMP-12 inhibition was determined by using a readout obtained at time point 30 minutes.
(§3) The MMP selectivity assay was performed by using other recombinant human MMPs, including MMP-1, MMP-2, MMP-3, MMP-7, MMP-8, MMP-9, MMP-10, MMP-13, and MMP-14. The IC50 of the compounds for the other recombinant human MMPs was determined as described above in Example 1, and are shown in Table 2.

recombinant human MMP-13 = recombinant human MMP-13 (Homo sapiens (Human), UniProt P45452); experiment: MMP selectivity assay MMP-13; format: biochemical
Description: as §1, §2, §3

recombinant human MMP-14 = recombinant human MMP-14 (Homo sapiens (Human), UniProt P50281); experiment: MMP selectivity assay MMP-14; format: biochemical
Description: as §1, §2, §3

[1] = system: bleomycin-induced unilateral lung fibrosis; experiment: Bleomycin-induced SD rat unilateral lung fibrosis model (IPF); format: in vivo; design: Left lung bronchial and arteriole damage score, fibrosis core / Left lung bronchial and arteriole damage score, fibrosis border: scale not given here; Fibrosis score 1-3 (ratio of left lung fibrosis score) / Fibrosis score 4-8 (ratio of left lung fibrosis score) / Left lung fibrosis area: unit not given here; settings: for Left lung bronchial and arteriole damage score, fibrosis border / Left lung bronchial and arteriole damage score, fibrosis core: 14 days; for Left lung bronchial and arteriole damage score, fibrosis border: model 6.56 ± 0.51; for Left lung bronchial and arteriole damage score, fibrosis core: model 8.34 ± 0.24; for Left lung fibrosis score (Ashcraft): model 3.7 ± 0.1; for Fibrosis score 1-3 (ratio of left lung fibrosis score): model 44.0 ± 3.1; for Fibrosis score 4-8 (ratio of left lung fibrosis score): model 56.0 ± 3.1; for Left lung fibrosis area: model 69.1 ± 3.3
Description: The purpose of this study was to evaluate the therapeutic effect of FC-4 on bleomycin (BLM) induced unilateral lung fibrosis model in Sprague Dawley (SD) rats. Male SD rats (n=50) were randomly divided into the following groups: Sham group (n=10), Model group (n=10), FC-4 administered at 10 mg/kg/day group (n=10), FC-4 administered at 30 mg/kg/day group (n=10), and FC-4 administered at 100 mg/kg/day group (n=10). All test drugs were delivered orally starting from day 8 of modeling for 14 days. Saline solution was taken for sham and model groups once a day, and FC-4 twice a day for drug treatment groups. Rats were anesthetized and the trachea was exposed. Saline was administrated via direct intra-trachea injection in the sham group, and the other groups' animals received a BLM injection at a dose of 3 mg/kg in volume of 1.0 ml/kg. All animals were processed using a non invasive lung function test with EMMS Whole Body Plethysmography system at pre-modeling, and at days 3, 7, 11, 14, 18 and 21 of modeling. One day after the last drug delivery, the left lung of all animals was perfused with 10% formalin, and processed for pathology analysis.
Animals: Species and quality level: SD rats, SPF grade. Gender and number: male, 93. Purchasing body weight range: 260-280 g. Company Certificate No.: SCXX (Jing) 2012-001, Beijing Vital River Laboratory Animal Technology Co., Ltd. Animal Housing: Rats were housed in the Animal House Facility of the Nanjing BioSciKin Co. Ltd. under international standards for temperature, humidity and light control system. The animal use protocol was reviewed and approved by the Institutional Animal Care and Use Committee (IACUC) of KCI Biotech Inc. All experimental procedures were conducted in conformity with institutional guidelines of KCI Biotech Inc.
Model Establishment: This study was carried out in strict accordance with the SOP institutional guidelines for the care and use of laboratory animals. Rats were anesthetized by intraperitoneal injection of pentobarbital sodium at dose of 50 mg/kg. Then rat neck skin was disinfected and opened in layers. The trachea was exposed carefully. Bleomycin (BLM) was directly injected into the left main bronchus at a dose of 3 mg/kg body weight in volume of 1.0 ml/kg via a cannula. After closing the trachea and skin in layers the animal was moved on an electric heat pad at 37° C. to await waking up from the anesthesia before returning to holding cages with free access to water and diet.
Experiment Grouping: Rats were assigned into 5groups: Sham (Group-1, n=10), Model (Group-2, n=10), FC-4-Low dose (Group-3, 10 mg/kg/day, n=10), FC-4-Middle dose (Group-4, 30 mg/kg/day, n=10), FC-4-High dose (Group-5, 100 mg/kg/day, n=10) (Table 1).
Drug Administration: Test article FC-4 were designed as an oral administration via a gastric perfusion. FC-4 was delivered twice a day starting from day-8 of modeling for 14 days. (Table 3.1).
Endpoint: a) Non invasive lung function test: All animals were given a non-invasive lung function examination with EMMS Whole Body Plethysmography (WBP) system at multiple time points during the study periods, including at pre-IPF modeling, day-3 of IPF, day-7 of IPF before dosing, day-11 of IPF, day-14 of IPF, day-18 of IPF and day-21 of IPF before sacrificing the animals, focusing on the parameters of tidal volume (TV), breath rate, inspiratory volume per minute (MV) and Penh. index. b) Left lung collection for pathology analysis: After the last examination of lung function, all animals were euthanized according to the standard SOP at KCI. After confirming the animal death, each animal received a systemic perfusion with 10% formaldehyde solution, then the left lung was harvested and perfused again with an equal volume of 10% formaldehyde solution (3 ml for each lung). […]

Sequence of recombinant human MMP-3 (P08254 100-477): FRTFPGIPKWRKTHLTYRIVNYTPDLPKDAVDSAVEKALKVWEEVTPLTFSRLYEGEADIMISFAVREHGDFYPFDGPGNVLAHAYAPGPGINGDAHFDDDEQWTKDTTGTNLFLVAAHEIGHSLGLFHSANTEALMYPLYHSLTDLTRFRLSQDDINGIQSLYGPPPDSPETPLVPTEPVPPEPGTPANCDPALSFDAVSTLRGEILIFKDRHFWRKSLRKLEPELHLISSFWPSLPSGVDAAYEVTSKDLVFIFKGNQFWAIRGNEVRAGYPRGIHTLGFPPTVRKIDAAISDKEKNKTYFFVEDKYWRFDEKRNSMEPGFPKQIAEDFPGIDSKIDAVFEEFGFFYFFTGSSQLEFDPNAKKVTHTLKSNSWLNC

Cc1cc(COc2ccc(Sc3ccoc3C3NC(=O)NC3=O)cc2)ccn1 (centres unmarked) [FC-4]
IC50 (recombinant human MMP-3): 100 to 1000 nM | IC50 (recombinant human MMP-13): 10 to 100 nM | IC50 (recombinant human MMP-14): 1000 to 10000 nM | Left lung bronchial and arteriole damage score, fibrosis border ([1]; 10 mg/kg/d p.o. BID): 4.2 ± 0.516 | Left lung bronchial and arteriole damage score, fibrosis core ([1]; 10 mg/kg/d p.o. BID): 6.04 ± 0.19 | Left lung fibrosis score (Ashcraft) ([1]; 10 mg/kg/d p.o. BID): 2.5 ± 0.2 | Fibrosis score 1-3 (ratio of left lung fibrosis score) ([1]; 10 mg/kg/d p.o. BID): 82.0 ± 5.5 | Fibrosis score 4-8 (ratio of left lung fibrosis score) ([1]; 10 mg/kg/d p.o. BID): 18.0 ± 5.5 | Left lung fibrosis area ([1]; 10 mg/kg/d p.o. BID): 75.1 ± 3.0 | Left lung bronchial and arteriole damage score, fibrosis border ([1]; 30 mg/kg/d p.o. BID): 4.76 ± 0.16 | Left lung bronchial and arteriole damage score, fibrosis core ([1]; 30 mg/kg/d p.o. BID): 6.18 ± 0.26 | Left lung fibrosis score (Ashcraft) ([1]; 30 mg/kg/d p.o. BID): 2.6 ± 0.1 | Fibrosis score 1-3 (ratio of left lung fibrosis score) ([1]; 30 mg/kg/d p.o. BID): 81.0 ± 4.8 | Fibrosis score 4-8 (ratio of left lung fibrosis score) ([1]; 30 mg/kg/d p.o. BID): 19.0 ± 4.8 | Left lung fibrosis area ([1]; 30 mg/kg/d p.o. BID): 66.4 ± 2.9 | Left lung bronchial and arteriole damage score, fibrosis border ([1]; 100 mg/kg/d p.o. BID): 4.18 ± 0.53 | Left lung bronchial and arteriole damage score, fibrosis core ([1]; 100 mg/kg/d p.o. BID): 6.28 ± 0.21 | Left lung fibrosis score (Ashcraft) ([1]; 100 mg/kg/d p.o. BID): 2.4 ± 0.2 | Fibrosis score 1-3 (ratio of left lung fibrosis score) ([1]; 100 mg/kg/d p.o. BID): 84.0 ± 4.3 | Fibrosis score 4-8 (ratio of left lung fibrosis score) ([1]; 100 mg/kg/d p.o. BID): 16.0 ± 4.3 | Left lung fibrosis area ([1]; 100 mg/kg/d p.o. BID): 70.5 ± 3.0 | Body weight recovery ([1]; CPD treatment groups vs model group): no significant difference in body recovery | Share of Ashcraft score ≤ score 3 ([1]; all drug treatment groups, model over 60% ≥ score 4): ~80% | MMP-12 expression in fibrosis core (IHC) ([1]; clear dose dependent reduction (p>0.05 as printed)): significant reduction | Collagen-I deposition in fibrosis core (IHC) ([1]; each dose, p<0.05): significant dosing dependent reduction | Collagen-IV deposition in fibrosis core (IHC) ([1]; p<0.05): significant dose dependent reduction | Elastin expression in fibrosis core (IHC) ([1]; p<0.05): significant reduction | TGF-β1 expression in fibrosis core (IHC) ([1]; p<0.05): significant reduction | Non invasive lung function (TV, MV, breath rate, Penh) ([1]; vs vehicle treated animals, all doses): did not show any significant changes

Reference: patent US10851089B2, “Matrix metalloproteinase (MMP) inhibitors and methods of use thereof” (Foresee Pharmaceuticals Co., Ltd., priority 2018, dated 2020)
